Measured values: patent publication US8716521B2 (priority 2008, dated 2014)
Structures can show the parent of a compound that is named as a salt. Where two headings read alike, the source gives them in different places.

Assays:
[1] = aqueous solution in the narrow pH range of solubility
[2] = Dissolution rate and vinyl sulfone generation during compounding at different temperatures; format: physicochemical; details: for dissolution time: 50 mL batch size
Description: The following items are some critical issues for the compounding of the drug product. • If the solution pH is higher than target pH, it can be titrated with 1.0 NHCL to the target pH. If the pH is too low, it will not be possible to back titrate with NaOH due to the sensibility of canfosfamide hydrochloride to alkaline environment. • Due to the acidity of the drug substance, the rate of dissolution of drug substance influences the pH of the compounding solution. A quick dissolution could reduce the pH faster and therefore reduce the time of exposure of the drug to high pH. […] The solution was then analyzed by HPLC.
An additional study of two liter batch size was conducted. Canfosfamide hydrochloride was dissolved into three batches of pH 6.5, 0.1 M citrate buffer and monitored at different temperatures; 5° C., 20° C. and 40° C. […] In the second batch at 20° C. (room temperature), the drug was totally dissolved after 20 minutes. […] The third batch consisted of adding drug at room temperature and allowing the temperature to increase to 40° C. over 90 minutes. […] These experiments support controlling the compounding procedure at room temperature until all drug is dissolved and filtered.

[3] = Stability in solution at 1 mg/mL, effect of pH (vinyl sulfone generation); format: physicochemical; details: 1 mg/mL in 0.1 M citrate buffer
Experimental: A stability study was performed by monitoring vinyl sulfone generation. Canfosfamide hydrochloride was dissolved at 1 mg/mL into 0.1 M citrated buffer from pH 4.5 to pH 6.5. The solutions were incubated at 25° C. for 24 hours. Vinyl sulfone generation was monitored.

[4] = not given; remark: listed apart in the source
[5] = Vinyl sulfone degradation on titration with NaOH
[6] = pH and osmolality of 50 mg/mL solution in citrate buffer
Description: The solubility of canfosfamide hydrochloride depends on the concentration and initial pH of buffer system.

In the case of `N[C@@H](CCC(=O)N[C@@H](CS(=O)(=O)CCOP(=O)(N(CCCl)CCCl)N(CCCl)CCCl)C(=O)N[C@@H](C(=O)O)c1ccccc1)C(=O)O` [Canfosfamide], the “time aqueous formulations are stable before decomposition products are observed” value [1] is reported as 6 to 12 h.
In the case of `N[C@@H](CCC(=O)N[C@@H](CS(=O)(=O)CCOP(=O)(N(CCCl)CCCl)N(CCCl)CCCl)C(=O)N[C@@H](C(=O)O)c1ccccc1)C(=O)O` [canfosfamide hydrochloride], the dissolution time ([2]; 5° C.) is reported as 45 min, the dissolution time ([2]; room temperature) is reported as 25 min and the “vinyl sulfone generated at 5° C. versus room temperature” value ([2]; during dissolution, HPLC) is reported as “not significantly different”. For the same compound, the dissolution observation ([2]; two liter batch, pH 6.5 0.1 M citrate buffer, 5° C., after 80 minutes) was “minor particles were observed”, the “time to total dissolution” value ([2]; two liter batch, pH 6.5 0.1 M citrate buffer, 20° C. (room temperature)) was 20 min and the vinyl sulfone generated ([2]; two liter batch, temperature increased from room temperature to 40° C. over 90 minutes) was “higher than the two previous batches”. The “Percent vinyl sulfone at 25° C.” value ([3]; pH 4.5, 6 hrs) was 0.1%, the “Percent vinyl sulfone at 25° C.” value ([3]; pH 4.5, 24 hrs) was 0.4% and the “Percent vinyl sulfone at 25° C.” value ([3]; pH 5.0, 6 hrs) was 0.2%. For the same compound, the “Percent vinyl sulfone at 25° C.” value ([3]; pH 5.0, 24 hrs) was 1.1%, the “Percent vinyl sulfone at 25° C.” value ([3]; pH 5.5, 6 hrs) was 0.6% and the “Percent vinyl sulfone at 25° C.” value ([3]; pH 5.5, 24 hrs) was 2.9%. For the same compound, the “Percent vinyl sulfone at 25° C.” value ([3]; pH 6.0, 6 hrs) was 1.7%, the “Percent vinyl sulfone at 25° C.” value ([3]; pH 6.0, 24 hrs) was 8.2% and the “Percent vinyl sulfone at 25° C.” value ([3]; pH 6.5, 6 hrs) was 6.6%. For the same compound, the “Percent vinyl sulfone at 25° C.” value ([3]; pH 6.5, 24 hrs) was 24.2%, the “amount dissolved by citrate buffer” value (0.1 M citrate buffer at pH 6.5) was “approximately 100 mg/mL” and the “pH at which soluble” value (aqueous) was “above 4.2”. The “pH at which stability is limited” value (aqueous) was over 5.0, the “% Purity 25° C.” value ([4]; 3 Month, bulk solution 50 mg/mL at pH 4.6, data is ± 2%) was 69% and the “% Purity 25° C.” value ([4]; Day 0, bulk solution 50 mg/mL at pH 4.6, data is ± 2%) was 92%. For the same compound, the “% Purity 25° C.” value ([4]; Day 3, bulk solution 50 mg/mL at pH 4.6, data is ± 2%) was 93%, the “% Purity 25° C.” value ([4]; Day 7, bulk solution 50 mg/mL at pH 4.6, data is ± 2%) was 89% and the “% Purity 25° C.” value ([4]; Day 28, bulk solution 50 mg/mL at pH 4.6, data is ± 2%) was 84%. For the same compound, the “% Purity 25° C.” value ([4]; Day l, bulk solution 50 mg/mL at pH 4.6, data is ± 2%) was 89%, the solubility (physchem; citrate buffer, pH 5.5, aqueous buffer) was 174 mg/mL and the solubility (physchem; water) was about 2 mg/mL. For the same compound, the “content of vinyl sulfone before titration” value ([5]; 50 mg/mL in pH 4.3 citrate buffer) was 0.64%, the “content of vinyl sulfone after titration” value ([5]; 50 mg/mL in pH 4.3 citrate buffer titrated with 0.1 N NaOH to pH 4.5) was 1.3% and the “content of vinyl sulfone after titration” value ([5]; 50 mg/mL in pH 4.3 citrate buffer titrated with 1.0 N NaOH to pH 4.5) was 6.5%. The pH of solution ([6]; 50 mg/mL dissolved in 0.1 M citrate buffer at pH 6.5) was “about 4.6” and the osmolality ([6]; 50 mg/mL in 100 mM citrate buffer) was “about 400 mM”.
